Measured values reported in PubChem BioAssay AID1963438 (Molecular Pharmacology Branch, DTP, NCI, 2024).

Test system: NCI-H510 multicellular tumor spheroid growth, % test/control
Experiment: Anticancer human tumor NCI-H510 cell line growth inhibition [Asc];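 also: spheroids exposed to agents for 7 days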;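 as to viability, T/C: 100% = DMSO vehicle control wells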
Settings: for IC50: curve of first compound; for viability, T/C: stronger effect = lower value
Summary of the method: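 Stromal components (HUVEC and hMSC) are co-assembled with the cancer cells into multicellular spheroids. Drugs are then added singly or paired, at concentrations falling by half-log increments from a clinically achievable maximum, capped at 10 microM without known Cmax.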

[1] = second compound 0.03 µM, first compound 0.00316 µM
[2] = second compound 0.03 µM, first compound 0.01 µM
[3] = second compound 0.03 µM, first compound 0.0316 µM
[4] = second compound 0.03 µM, first compound 0.1 µM
[5] = second compound 0.03 µM, first compound 0.316 µM
[6] = second compound 0.03 µM, first compound 1 µM
[7] = second compound 0.0949 µM, first compound 0.00316 µM
[8] = second compound 0.0949 µM, first compound 0.01 µM
[9] = second compound 0.0949 µM, first compound 0.0316 µM
[10] = second compound 0.0949 µM, first compound 0.1 µM
[11] = second compound 0.0949 µM, first compound 0.316 µM
[12] = second compound 0.0949 µM, first compound 1 µM
[13] = second compound 0.3 µM, first compound 0.00316 µM
[14] = second compound 0.3 µM, first compound 0.01 µM
[15] = second compound 0.3 µM, first compound 0.0316 µM
[16] = second compound 0.3 µM, first compound 0.1 µM
[17] = second compound 0.3 µM, first compound 0.316 µM
[18] = second compound 0.3 µM, first compound 1 µM
[19] = second compound 0.949 µM, first compound 0.00316 µM
[20] = second compound 0.949 µM, first compound 0.01 µM
[21] = second compound 0.949 µM, first compound 0.0316 µM
[22] = second compound 0.949 µM, first compound 0.1 µM
[23] = second compound 0.949 µM, first compound 0.316 µM
[24] = second compound 0.949 µM, first compound 1 µM
[25] = second compound 3 µM, first compound 0.00316 µM
[26] = second compound 3 µM, first compound 0.01 µM
[27] = second compound 3 µM, first compound 0.0316 µM
[28] = second compound 3 µM, first compound 0.1 µM
[29] = second compound 3 µM, first compound 0.316 µM
[30] = second compound 3 µM, first compound 1 µM

O=C(c1ccc(F)c(F)c1Nc1ccc(I)cc1F)N1CC(O)([C@@H]2CCCCN2)C1 + CCN1C(C(=O)NC23CCC(C(=O)O)(CC2)CC3)C(c2cccc(Cl)c2F)C2(C(=O)Nc3cc(Cl)ccc32)C12CCCCC2 was tested, and the IC50 (second compound 0.03 µM) was greater than 1 µM, the IC50 (second compound 0.0949 µM) was greater than 1 µM and the IC50 (second compound 0.3 µM) was greater than 1 µM. It also gave an IC50 (second compound 0.949 µM) greater than 1 µM, an IC50 (second compound 3 µM) greater than 1 µM and a viability, T/C [1] of 95.8%. For the same molecule, the viability, T/C [2] was 126%, the viability, T/C [3] was 130% and the viability, T/C [4] was 121%. The viability, T/C [5] was 103%, the viability, T/C [6] was 103% and the viability, T/C [7] was 127%. The viability, T/C [8] was 124%, the viability, T/C [9] was 105% and the viability, T/C [10] was 95.7%. For the same molecule, the viability, T/C [11] was 126%, the viability, T/C [12] was 116% and the viability, T/C [13] was 122%. The viability, T/C [14] was 111%, the viability, T/C [15] was 120% and the viability, T/C [16] was 119%. The viability, T/C [17] was 117%, the viability, T/C [18] was 91.5% and the viability, T/C [19] was 120%. For the same molecule, the viability, T/C [20] was 132%, the viability, T/C [21] was 132% and the viability, T/C [22] was 131%. The viability, T/C [23] was 118%, the viability, T/C [24] was 116% and the viability, T/C [25] was 134%. For the same molecule, the viability, T/C [26] was 160%, the viability, T/C [27] was 140% and the viability, T/C [28] was 114%. It also gave a viability, T/C [29] of 124% and a viability, T/C [30] of 127%.
With C=C(F)C(=O)N1CCN(c2nc(OCC3CCCN3C)nc3c2CCN(c2cccc4cccc(Cl)c24)C3)CC1CC#N (stereo not given) + Cc1c(S(C)(=O)=O)c(-c2cc(F)cc(N3CCN(c4ccc(NS(=O)(=O)c5ccc(NC(CCN6CCC(C(=O)OCCCP(=O)(O)O)CC6)CSc6ccccc6)c(S(=O)(=O)C(F)(F)F)c5)cc4)CC3)c2)c(-c2ccc(Cl)cc2)n1C(C)C the IC50 (second compound 0.1 µM) was 0.693 µM, the IC50 (second compound 0.316 µM) was 0.905 µM and the IC50 (second compound 1 µM) was 0.761 µM. It also gave an IC50 (second compound 3.16 µM) of 0.961 µM, an IC50 (second compound 10 µM) of 0.546 µM and a viability, T/C (second compound 0.1 µM, first compound 0.0316 µM) of 103%. The viability, T/C (second compound 0.1 µM, first compound 0.1 µM) was 85.7%, the viability, T/C (second compound 0.1 µM, first compound 0.316 µM) was 86% and the viability, T/C (second compound 0.1 µM, first compound 1 µM) was 33.7%. It also gave a viability, T/C (second compound 0.1 µM, first compound 3.16 µM) of 0.61%, a viability, T/C (second compound 0.1 µM, first compound 10 µM) of 0.12% and a viability, T/C (second compound 0.316 µM, first compound 0.0316 µM) of 105%. It also gave a viability, T/C (second compound 0.316 µM, first compound 0.1 µM) of 95%, a viability, T/C (second compound 0.316 µM, first compound 0.316 µM) of 86.2% and a viability, T/C (second compound 0.316 µM, first compound 1 µM) of 48.9%. For the same molecule, the viability, T/C (second compound 0.316 µM, first compound 3.16 µM) was 0.67%, the viability, T/C (second compound 0.316 µM, first compound 10 µM) was 0.11% and the viability, T/C (second compound 1 µM, first compound 0.0316 µM) was 113%. It also gave a viability, T/C (second compound 1 µM, first compound 0.1 µM) of 125%, a viability, T/C (second compound 1 µM, first compound 0.316 µM) of 99.8% and a viability, T/C (second compound 1 µM, first compound 1 µM) of 34.8%. For the same molecule, the viability, T/C (second compound 1 µM, first compound 3.16 µM) was 0.13%, the viability, T/C (second compound 1 µM, first compound 10 µM) was 0.11% and the viability, T/C (second compound 3.16 µM, first compound 0.0316 µM) was 118%. It also gave a viability, T/C (second compound 3.16 µM, first compound 0.1 µM) of 110%, a viability, T/C (second compound 3.16 µM, first compound 0.316 µM) of 94.1% and a viability, T/C (second compound 3.16 µM, first compound 1 µM) of 52.2%. It also gave a viability, T/C (second compound 3.16 µM, first compound 3.16 µM) of 0.11%, a viability, T/C (second compound 3.16 µM, first compound 10 µM) of 0.14% and a viability, T/C (second compound 10 µM, first compound 0.0316 µM) of 86.2%. The viability, T/C (second compound 10 µM, first compound 0.1 µM) was 103%, the viability, T/C (second compound 10 µM, first compound 0.316 µM) was 80.6% and the viability, T/C (second compound 10 µM, first compound 1 µM) was 15.6%. The viability, T/C (second compound 10 µM, first compound 3.16 µM) was 0.8% and the viability, T/C (second compound 10 µM, first compound 10 µM) was 0.19%.
In the case of COc1c(OCCCN2CCOCC2)ccc2c3n(c(=NC(=O)c4cnc(N)nc4)nc12)CCN3 + CCN1C(C(=O)NC23CCC(C(=O)O)(CC2)CC3)C(c2cccc(Cl)c2F)C2(C(=O)Nc3cc(Cl)ccc32)C12CCCCC2, the IC50 (second compound 0.03 µM) is reported as greater than 1 µM, the IC50 (second compound 0.0949 µM) is reported as greater than 1 µM and the IC50 (second compound 0.3 µM) is reported as greater than 1 µM. The IC50 (second compound 0.949 µM) was greater than 1 µM, the IC50 (second compound 3 µM) was greater than 1 µM and the viability, T/C [1] was 94.2%. For the same molecule, the viability, T/C [2] was 112%, the viability, T/C [3] was 96.4% and the viability, T/C [4] was 93.6%. For the same molecule, the viability, T/C [5] was 70%, the viability, T/C [6] was 58.7% and the viability, T/C [7] was 94.3%. The viability, T/C [8] was 91%, the viability, T/C [9] was 98.4% and the viability, T/C [10] was 99.3%. For the same molecule, the viability, T/C [11] was 92.5%, the viability, T/C [12] was 65.6% and the viability, T/C [13] was 92.3%. For the same molecule, the viability, T/C [14] was 101%, the viability, T/C [15] was 105% and the viability, T/C [16] was 105%. It also gave a viability, T/C [17] of 95.6%, a viability, T/C [18] of 51.2% and a viability, T/C [19] of 80.6%. For the same molecule, the viability, T/C [20] was 99.5%, the viability, T/C [21] was 114% and the viability, T/C [22] was 104%. The viability, T/C [23] was 62%, the viability, T/C [24] was 80.4% and the viability, T/C [25] was 112%. The viability, T/C [26] was 105%, the viability, T/C [27] was 73.9% and the viability, T/C [28] was 85%. For the same molecule, the viability, T/C [29] was 86.5% and the viability, T/C [30] was 83.3%.
With O=C(c1cc(Cc2n[nH]c(=O)c3ccccc23)ccc1F)N1CCN(C(=O)C2CC2)CC1 + CCN1C(C(=O)NC23CCC(C(=O)O)(CC2)CC3)C(c2cccc(Cl)c2F)C2(C(=O)Nc3cc(Cl)ccc32)C12CCCCC2 the IC50 (second compound 0.03 µM) was 1.33 µM, the IC50 (second compound 0.0949 µM) was 2.02 µM and the IC50 (second compound 0.3 µM) was 1.36 µM. It also gave an IC50 (second compound 0.949 µM) of 2.62 µM, an IC50 (second compound 3 µM) of 2.55 µM and a viability, T/C [3] of 77.3%. For the same molecule, the viability, T/C [4] was 101%, the viability, T/C [5] was 100% and the viability, T/C [6] was 60.9%. It also gave a viability, T/C (second compound 0.03 µM, first compound 3.16 µM) of 18.1%, a viability, T/C (second compound 0.03 µM, first compound 10 µM) of 8.44% and a viability, T/C [9] of 81.3%. The viability, T/C [10] was 106%, the viability, T/C [11] was 105% and the viability, T/C [12] was 77.5%. It also gave a viability, T/C (second compound 0.0949 µM, first compound 3.16 µM) of 32.7%, a viability, T/C (second compound 0.0949 µM, first compound 10 µM) of 19.7% and a viability, T/C [15] of 79.8%. The viability, T/C [16] was 102%, the viability, T/C [17] was 95.7% and the viability, T/C [18] was 57%. The viability, T/C (second compound 0.3 µM, first compound 3.16 µM) was 25.5%, the viability, T/C (second compound 0.3 µM, first compound 10 µM) was 8.82% and the viability, T/C [21] was 109%. For the same molecule, the viability, T/C [22] was 99.8%, the viability, T/C [23] was 97.5% and the viability, T/C [24] was 86.7%. The viability, T/C (second compound 0.949 µM, first compound 3.16 µM) was 42.5%, the viability, T/C (second compound 0.949 µM, first compound 10 µM) was 5.78% and the viability, T/C [27] was 94.5%. It also gave a viability, T/C [28] of 78.1%, a viability, T/C [29] of 95.1% and a viability, T/C [30] of 93.3%. The viability, T/C (second compound 3 µM, first compound 3.16 µM) was 40.8% and the viability, T/C (second compound 3 µM, first compound 10 µM) was 22.3%.
